Values quoted from earlier work, collected in patent US20200132604A1, “METHODS OF DETERMINING PROTEIN STRUCTURE USING TWO-PHOTON FLUORESCENCE MEASUREMENTS” (Biodesy, Inc., priority 2017, published 2020).

Columns and labels:
[1] = molecular target: monomeric forms of avidin or streptavidin; settings: read-out: biotin-binding affinity
[2] = test system: human IgG-Fc; settings: Sugita, et al. (2013)

Compound	Kd [1] [nM]	affinity [2] [M⁻¹]
O=C(O)CCCC[C@@H]1SC[C@@H]2NC(=O)N[C@@H]21 [biotin]	~10	–
NARKFYKG	–	6.5e+06
NKFRGKYK	–	8.9e+06
